# Literature values as cited in the CATMoS acute toxicity set (Mansouri et al. 2021).
# Where “and” joins values, the source holds several entries; their conditions need not be identical. Equal entries are not always repeated.
# Assay: rat acute oral toxicity
# Details: in vivo
row,Structure (SMILES),LD50
1,c1ccc(N2CCNCC2)cc1,210 mg/kg
2,CC(C)OC(=O)COc1cc(Cl)c(Cl)cc1Cl,495 mg/kg
3,C=CCC1(CCSCCCC)C(=O)N=C(S)NC1=O (configuration not stated),1450 mg/kg
4,CCOC(=O)Nc1ccc(NCc2ccc(F)cc2)nc1N,1660 mg/kg
5,N=C(N)NCCCCCCCCNCCCCCCCCNC(=N)N,300 mg/kg
6,NC1=C(Cl)C(=O)c2ccccc2C1=O,1360 mg/kg
7,CNC(=O)Oc1ccc(SC)c(C)c1,50 mg/kg
8,CC(C)(C)NCC(O)c1ccccc1Cl (configuration not stated),560 mg/kg
9,COc1ccccc1OC1CCN(CCCC(=O)c2ccc(F)cc2)C1 (configuration not stated),241 mg/kg
10,FC(F)(F)c1nc2c(Br)c(Cl)c(Br)cc2[nH]1,8.47 mg/kg
11,CC/C(=C(/CC)c1ccc(OP(=O)(O)O)cc1)c1ccc(OP(=O)(O)O)cc1,3000 mg/kg
12,Nc1ccc2ccccc2c1,727 mg/kg
13,NC(N)=NCC=Cc1ccccc1,456 mg/kg
14,CN1[C@@H]2CC[C@H]1C[C@@H](OC(c1ccccc1)c1ccccc1)C2,940 mg/kg
15,CCCCC(O)(Cn1cncn1)c1ccc(Cl)cc1Cl (configuration not stated),2190 mg/kg
16,O=[N+]([O-])c1nccn1CC(O)CO (configuration not stated),5080 mg/kg
17,Oc1c(Cl)cc(Cl)cc1Sc1cc(Cl)cc(Cl)c1O,492 mg/kg
18,CC1(C)OCC(CCl)O1 (configuration not stated),115 mg/kg
19,CN(C)C1CCc2ccccc2C(Oc2ccc([N+](=O)[O-])cc2)C1 (configuration not stated),534 mg/kg
20,OCC1CC2CC1C1CCC(CO)C21 (configuration not stated),2250 mg/kg
21,CC(=O)OC1c2c(ccc3ccc(=O)oc23)OC(C)(C)C1OC(=O)C=C(C)C (configuration not stated),832 mg/kg
22,O=C(O)Cc1csc(-c2ccc(Cl)cc2)n1,850 mg/kg
23,COP(=S)(NC(C)C)Oc1ccc(Cl)cc1Cl (configuration not stated),270 mg/kg
24,CCOP(=O)(NC(C)=O)SC (configuration not stated),500 mg/kg
25,C=CCOC1=NS(=O)(=O)c2ccccc21,2030 mg/kg
26,N#CCCN1C(=O)C(O)N=C(c2ccccc2F)c2cc(Cl)ccc21 (configuration not stated),3500 mg/kg

row,Structure (SMILES),LD50
1,CC(=O)Nc1ccc(OCC(O)CNC(C)C)cc1 (configuration not stated),3460 mg/kg
2,OCCOCCN1CCN(C(c2ccccc2)c2ccc(Cl)cc2)CC1 (configuration not stated),690 mg/kg and 950 mg/kg and 840 mg/kg
3,N#Cc1ccccc1Cl,396 mg/kg
4,CCCCCCCCCCCCCCCCCC(=O)OCCCC,32000 mg/kg
5,O=C(NC1CCN(CCc2c[nH]c3ccccc23)CC1)c1ccccc1,1800 mg/kg
6,FC(F)(F)c1nc2c(C(F)(F)F)cc(Cl)cc2[nH]1,1.66 mg/kg
7,CCOP(=S)(OCC)Sc1ccc(C)cc1,316 mg/kg
8,CCNc1nc(NC(C)C)nc(OC)n1,1460 mg/kg
9,COP(=O)(OC)Oc1ccc([N+](=O)[O-])cc1,3.27 mg/kg
10,CCOC(=O)N(C)SN(C)C(=O)O/N=C(\C)SC,226 mg/kg
11,NC1(C(=O)O)CCCC1,290 mg/kg and 260 mg/kg
12,CCOP(=S)(OC(C)C)Sc1nc(C)cc(C)n1 (configuration not stated),68 mg/kg
13,CCOP(=O)(OCC)SCS(=O)CC (configuration not stated),1 mg/kg
14,Cc1cc(=O)nc(SCc2ccccc2N(C)C)[nH]1,2400 mg/kg
15,C=CCSCC=C,2980 mg/kg
16,CC(C)C1C=C2CC[C@H]3[C@](C)(CO)CCC[C@]3(C)[C@H]2CC1 (some centres not stated),70000 mg/kg
17,CC1=[N+](C)c2ccccc2C1(C)C,707 mg/kg
18,CNC(=O)ON=C1SC(=NN(C)C)SC1(C)C,1.8 mg/kg
19,CC(C)CC(C)CC(=O)O (configuration not stated),900 mg/kg
20,C#CCCC#CC#CCCCCO,250 mg/kg
21,CCC(CC)(C(=O)O)c1cccc2ccccc12,1080 mg/kg
22,C/C=C/C=C/C=O,300 mg/kg
23,C[C@@H]1O[C@@H](O[C@@H]2C=C3CC[C@@H]4[C@H](CC[C@]5(C)[C@@H](c6ccc(=O)oc6)CC[C@]45O)[C@@]3(C)CC2)[C@H](O)[C@H](O)[C@H]1O,56 mg/kg
24,C(=Nc1ccc(N=Cc2ccco2)cc1)c1ccco1,1220 mg/kg
25,CN1CCCN=C1COC(=O)C(O)(c1ccccc1)C1CCCCC1 (configuration not stated),1370 mg/kg
26,Cc1c(-c2c(C)c(N)c3c(C(C)C)c(O)c(O)c(C=O)c3c2O)c(O)c2c(C=O)c(O)c(O)c(C(C)C)c2c1N,3270 mg/kg

row,Structure (SMILES),LD50
1,CN(C)CCCNC1=C2C(=CC=CC2[N+](=O)[O-])N(O)c2ccccc21 (configuration not stated),110 mg/kg
2,C[N+](C)(C)CCBr,190 mg/kg
3,COc1cc(C)c2[nH]c(C)c(CCN3CC4CCC(CC4)C3)c2c1,787 mg/kg
4,COC(=O)c1ccccc1O,1700 mg/kg
5,c1ccc2c(c1)ncn2P(n1cnc2ccccc21)n1cnc2ccccc21,2900 mg/kg
6,NC(C(=O)O)c1ccccc1 (configuration not stated),3030 mg/kg
7,COP(=O)(OC)OC(=C(Br)Br)c1ccc(Cl)cc1Cl,180 mg/kg
8,O=C(OC1CCCCC1)C(Oc1ccc(Cl)cc1)Oc1ccc(Cl)cc1,900 mg/kg
9,CN(C)CC#N,50 mg/kg
10,COc1ccc(N)cc1Cl,550 mg/kg
11,CCOC(=O)c1c(C)cc2nc(COC(=O)NC)n(-c3ccccc3Cl)c(=O)c2c1C,2500 mg/kg
12,CC1(COCC2(C)CO2)CO1 (configuration not stated),1680 mg/kg
13,CN(C)C(=O)c1sc(-c2cccnc2)nc1-c1ccccc1,1040 mg/kg
14,CCC(N)Cc1c[nH]c2ccccc12 (configuration not stated),49 mg/kg
15,COP(=O)(OC)Oc1ccc(SC)cc1,7 mg/kg
16,CC(C)=CCC/C(C)=C/C#N,3100 mg/kg
17,OC(c1ccccc1)C1CCCCC1 (configuration not stated),9300 mg/kg
18,O=c1[nH]c2cc(Br)ccc2o1,1050 mg/kg
19,CN1CCN(C)CC1,1120 mg/kg
20,COCCOC(=O)CC#N,4300 mg/kg
21,O=C1CN(N=Cc2ccc(-c3ccc([N+](=O)[O-])cc3)o2)C(=O)N1,7430 mg/kg
22,COc1c(C)c2c(c(O)c1C/C=C(\C)CCC(=O)O)C(=O)OC2,352 mg/kg
23,O=S1(=O)CS(=O)(=O)OCO1,300 mg/kg
24,CN(CCC#N)CCC#N,890 mg/kg
25,CC1(C)S[C@@H]2[C@H](NC(=O)C(C(=O)O)c3ccsc3)C(=O)N2[C@H]1C(=O)O (some centres not stated),16000 mg/kg
26,O=C1c2ccccc2C(=O)C1c1ccccc1,163 mg/kg

row,Structure (SMILES),LD50
1,CCCCCCCCCc1ccc(OCCOS(=O)(=O)O)cc1,10000 mg/kg
2,Nc1ccc(N=Nc2ccccc2)cc1,1250 mg/kg
3,COc1ccc2c(c1)c(CC(=O)OCOC(=O)c1cccc(C)c1)c(C)n2C(=O)c1ccc(Cl)cc1,106 mg/kg
4,C[N+]1(CCN(C2CCCCC2)C2CCCCC2)CCCCC1,650 mg/kg
5,O=C(NCCO[N+](=O)[O-])c1cccnc1,1220 mg/kg
6,COc1ccc(NS(=O)(=O)c2ccc(N)cc2)nn1,2740 mg/kg
7,CON=C(Cc1cccnc1)c1ccc(Cl)cc1Cl,1700 mg/kg
8,O=C(CCCN1CCC(O)(c2ccc(Cl)c(C(F)(F)F)c2)CC1)c1ccc(F)cc1,195 mg/kg
9,CC(C(=O)O)c1ccc(N2CC3=C(CC=CC3)C2=O)cc1 (configuration not stated),328 mg/kg
10,CC(NN)c1ccccc1 (configuration not stated),458 mg/kg
11,COc1nc(C(F)(F)F)nc(=NC(O)=NS(=O)(=O)c2ccccc2C(F)(F)F)[nH]1,4700 mg/kg
12,CCOP(=S)(OCC)SCC,80 mg/kg
13,CCC(C)c1ccc(Oc2ccc(C)cc2CC(=O)O)c(Cl)c1 (configuration not stated),1110 mg/kg
14,CCC(C)C(C(=O)OC1CC[N+](C)(C)CC1)c1ccccc1 (configuration not stated),720 mg/kg
15,CCN(CC)CCSC(=O)C(c1ccccc1)c1ccccc1,2720 mg/kg
16,Cc1cc(C(C)(C)C)c(OB(OC(C)C)OC(C)C)c(C(C)(C)C)c1,5200 mg/kg
17,Cc1ccc(C(=O)CC(=O)C(F)(F)F)cc1,300 mg/kg
18,CCN(CC)CCOC1(c2ccc(Cl)cc2)CCCCC1,500 mg/kg
19,O=C=NCCCCCCNC(=O)N(CCCCCCN=C=O)C(=O)NCCCCCCN=C=O,19800 mg/kg
20,O=c1ccc2ccc3occc3c2o1,322 mg/kg
21,CN(C)CC1CCCCC1,1230 mg/kg
22,Cn1c(=O)c2c(ncn2CCCCCN2CCN(c3cccc(C(F)(F)F)c3)CC2)n(C)c1=O,660 mg/kg
23,CSc1ncnc2c1ncn2C1OC(CO)C(O)C1O (configuration not stated),214 mg/kg
24,O=C(O)c1snc(Cl)c1Cl,1200 mg/kg
